Results on 3 molecules are retold here after article PMC2726796 (Journal of the American Chemical Society, 2008).

The target of one series is T1, KtzS (Kutzneria sp. 744, UniProt A8CF73).
T1 sequence (A8CF73 1-174): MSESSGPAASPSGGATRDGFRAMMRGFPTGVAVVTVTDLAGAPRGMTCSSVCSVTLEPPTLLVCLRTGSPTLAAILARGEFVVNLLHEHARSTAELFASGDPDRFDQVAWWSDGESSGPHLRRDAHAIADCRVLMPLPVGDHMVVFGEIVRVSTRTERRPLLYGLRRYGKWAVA
The series can be described thus: flavin reductase activity of purified enzyme. The series is classed as biochemical.

Substrate in series [1]: N[C@@H](Cc1c[nH]c2c(Cl)cccc12)C(=O)O
As to the kind of experiment: coupled halogenation assay with flavin reductase. The series is classed as biochemical, Kutzneria sp. 744. Conditions: FAD, NADH, excess KtzS or SsuE, chloride, O2.

Substrate in series [2]: N[C@@H](Cc1c[nH]c2ccccc12)C(=O)O
As to the kind of experiment: coupled halogenation assay with flavin reductase. The conditions noted are these: FAD, NADH, excess KtzS or SsuE, chloride, O2. It is filed as biochemical, Kutzneria sp. 744.

Turning to `Cc1cc2nc3c(=O)[nH]c(=O)nc-3n(C[C@H](O)[C@H](O)[C@H](O)COP(=O)(O)OP(=O)(O)OC[C@H]3O[C@@H](n4cnc5c(N)ncnc54)[C@H](O)[C@@H]3O)c2cc1C` [FAD], the “flavin reductase activity of purified enzyme” value on KtzS (NADH as reductant) is reported as “shown to be an NADH-utilizing FAD reductase”.

As for `NC(=O)C1=CN([C@@H]2O[C@H](COP(=O)(O)OP(=O)(O)OC[C@H]3O[C@@H](n4cnc5c(N)ncnc54)[C@H](O)[C@@H]3O)[C@@H](O)[C@H]2O)C=CC1` [NADH], the “flavin reductase activity of purified enzyme” value on KtzS (FAD as acceptor) was “shown to be an NADH-utilizing FAD reductase”.

B1: KtzR (Kutzneria sp. 744) (protein)
chain: MVIVGGGTAGWMTAAYLKTAFGDRLSITVVESSRIGTIGVGEATFSDIQHFFQFLNLREQDWMPACNATYKLGIRFENWRHVGHHFYQPFEQIRPVYGFPLTDWWLHDAPTDRFDTDCFVMPNLCEAGRSPRHLDGTLADEDFVEEGDELANRTMSEHQGKSQFPYAYHFEAALLAKFLTGYAVDRGVEHVVDDVLDVRLDQRGWIEHVVTAEHGEIHGDLFVDCTGFRGLLLNKALGVPFVSYQDTLPNDSAVALQVPLDMQRRGIVPNTTATAREAGWIWTIPLFGRVGTGYVYAKDYLSPEEAERTLREFVGPAAADVEANHIRMRIGRSQESWRNNCVAIGLSSGFVEPLESTGIFFIHHAIEQLVKHFPAADWNPKSRDMYNSAVAHVMDGIREFLVIHYRGAARADNQYWRDTKTRPLPDGLAERIECWQTQLPDTETIYPYYHGLPPYSYMCILMGGGAIRTPASAALALTDQGAAQKEFAAVRDRAAQLRDTLPSHYEYLARMRGLDV
Turning to B1, the Km (as a rule, the substrate concentration at which the rate is half of its maximum) in series [1] amounted to 114 µM; in series [2] it was 808 µM.
